How the values were obtained:
[1] = target: T1, E. coli dipeptide binding protein (DPP), fluorophore-conjugated cysteine mutants (Escherichia coli, UniProt P23847); experiment: Ligand affinity of dipeptide BP fluorescent conjugates (Kd range); conditions: range over conjugates, n=21
T1 construct: several single-Cys mutants (e.g. K394C) with fluorophore
Excerpt: Molecular Cloning. […] Amplified products were cloned into one of the protein expression vectors pAED4 (Doering, “Functional and structural studies of a small f-actin binding domain” in Ph.D. thesis, Massachusetts Institute of Technology, 1992); pKK223-3 (Brosius & Holy, Proc. Natl. Acad. Sci. USA 81:6929-6933, 1984); or pET vectors (Studier et al., Meth. Enzymol. 185:60-89, 1990) (Novagen). N-terminal oligonucleotide primers were designed to clone only the processed periplasmic form, deleting the signal sequence. The C-terminal primer was designed to append the sequence Gly-Ser-Gly-(His)n or Gly-Ser-(His)n, where n=5, 6, or 10. Two tandem stop codons (TAATGA) follow the last His codon. […] Additionally the sequence of Fe(III) BP was mutated by substitution of Glu57 with Asp to raise the Kd to a concentration range conveniently measured using Fe(III) citrate.
Fluorophore conjugation to cysteine-substituted bPBPs. […] The efficiency of reporter group attachment was assessed by determination of unreacted thiol with Ellman's reagent (Ellman, Arch. Biochem. Biophys. 74:443-450, 1958) or by measuring the ratio of fluorophore to protein from absorbance spectra of the purified conjugate.
Fluorimetry. […] Fluorescence emission spectra were acquired with excitation and emission slit widths of 4 and 8 nm, respectively. […]

[2] = target: T2, E. coli dipeptide binding protein variant D450C, fluorophore conjugate (Escherichia coli, UniProt P23847, D478C); experiment: Fluorimetric titration of fluorophore conjugates; conditions: peristeric site
T2 construct: initiator methionine (N); Gly-Ser-Gly-(His)n or Gly-Ser-(His)n (n = 5, 6 or 10) (C); made in house; host or cells: E. coli BL21-DE3
T2 sequence (P23847 29-535 D478C): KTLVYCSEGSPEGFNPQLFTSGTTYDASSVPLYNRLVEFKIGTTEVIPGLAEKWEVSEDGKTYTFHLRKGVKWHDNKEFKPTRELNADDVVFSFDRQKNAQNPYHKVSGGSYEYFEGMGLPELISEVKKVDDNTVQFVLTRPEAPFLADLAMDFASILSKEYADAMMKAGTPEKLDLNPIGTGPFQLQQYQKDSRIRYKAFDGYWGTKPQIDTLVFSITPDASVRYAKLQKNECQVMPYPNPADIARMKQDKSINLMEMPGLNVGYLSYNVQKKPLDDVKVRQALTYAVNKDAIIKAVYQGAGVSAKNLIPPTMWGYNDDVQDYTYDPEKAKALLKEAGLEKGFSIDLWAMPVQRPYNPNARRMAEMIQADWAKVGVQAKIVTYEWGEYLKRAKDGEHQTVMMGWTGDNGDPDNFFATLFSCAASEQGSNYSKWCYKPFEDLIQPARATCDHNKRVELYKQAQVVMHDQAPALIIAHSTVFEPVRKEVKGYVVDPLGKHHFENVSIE
Excerpt: (§1) Molecular Cloning. […] Amplified products were cloned into one of the protein expression vectors pAED4 (Doering, “Functional and structural studies of a small f-actin binding domain” in Ph.D. thesis, Massachusetts Institute of Technology, 1992); pKK223-3 (Brosius & Holy, Proc. Natl. Acad. Sci. USA 81:6929-6933, 1984); or pET vectors (Studier et al., Meth. Enzymol. 185:60-89, 1990) (Novagen). N-terminal oligonucleotide primers were designed to clone only the processed periplasmic form, deleting the signal sequence. The C-terminal primer was designed to append the sequence Gly-Ser-Gly-(His)n or Gly-Ser-(His)n, where n=5, 6, or 10. Two tandem stop codons (TAATGA) follow the last His codon. […] Single amino acid substitutions were generated by overlapping PCR mutagenesis (Ho et al., Gene 77:51-59, 1989). All clones and mutations were confirmed by nucleotide sequencing. In the case of arabinose BP, the single cysteine in the wild type sequence was replaced by alanine to eliminate the possibility of reporter group conjugation to this thiol (Miller et al., J. Biol. Chem. 254:7521-7528, 1979). Additionally the sequence of Fe(III) BP was mutated by substitution of Glu57 with Asp to raise the Kd to a concentration range conveniently measured using Fe(III) citrate.
(§2) Fluorophore conjugation to cysteine-substituted bPBPs. Thiol-reactive fluorophores obtained from Molecular Probes (Eugene, Oreg.) were 5-iodoacetamidofluorescein (fluorescein); N-(1-pyrene) iodoacetamide (pyrene); N,N′-dimethyl-N-(iodoacetyl)-N′-(7-nitrobenz-2-oxa-1,3-diazol-4-yl)ethylenediamide (NBD); N-((2-(iodoacetoxy)ethyl)-N-methyl)amino-7-nitrobenz-2-oxa-1,3-diazole (NBDE); and 6-acryloyl-2-dimethylaminonaphthalene (acrylodan). The styryl and naphthyl dyes JPW4039, JPW4042, and JPW4045 (FIG. 3) were synthesized at the University of Connecticut. All fluorophore conjugation steps were typically carried out at room temperature. To protein at a concentration of 100 μM was added tris-(2-carboxyethyl)phosphine HCl to a five-fold molar excess to reduce intermolecular disulfide bonds. A thiol-reactive fluorophore (20 to 25 mM in acetonitrile or dimethyl sulfoxide) was added in small aliquots to a five-fold molar excess over protein. Conjugation proceeded in the dark at room temperature for 4 hours, or overnight at 4° C. Separation of protein from unreacted fluorophore was achieved by exhaustive dialysis or by size-exclusion chromatography. The efficiency of reporter group attachment was assessed by determination of unreacted thiol with Ellman's reagent (Ellman, Arch. Biochem. Biophys. 74:443-450, 1958) or by measuring the ratio of fluorophore to protein from absorbance spectra of the purified conjugate.
(§3) Fluorimetry. All measurements were conducted with an SLM Aminco-Bowman series 2 fluorimeter, with sample stirring at 25° C. Fluorescence emission spectra were acquired with excitation and emission slit widths of 4 and 8 nm, respectively. Photomultiplier tube potential was maintained between 400 and 800 volts. Protein concentrations were in the range of 50 to 1000 nM. Fluorophore-specific excitation was at the following approximate wavelengths: tryptophan, 290 nm; acrylodan, 390 nm; fluorescein, 485 nm; pyrene, 340 nm; NBD and NBDE, 490 nm; JPW4039, 485 nm; JPW4042, 470 nm; JPW4045, 470 nm.
(§4) Corrections were made for dilution of the protein and for background signal from buffer. Binding curves were fit to binding isotherms using equation 3 or 4, as appropriate.
(§5) Analyte affinity measurements. […] The emission wavelength monitored was that of maximum difference in intensity between the ligand-free and bound states. For each conjugate, fluorescence intensiometric observations were fit to a hyperbolic binding isotherm for a two-state model (Marvin et al., Proc. Natl. Acad. Sci. USA 94:4366-4371, 1997): […]

[3] = target: T3, E. coli dipeptide binding protein variant K394C, fluorophore conjugate (Escherichia coli, UniProt P23847, K422C); experiment: Fluorimetric titration of fluorophore conjugates
T3 construct: initiator methionine (N); Gly-Ser-Gly-(His)n or Gly-Ser-(His)n (n = 5, 6 or 10) (C); made in house; host or cells: E. coli BL21-DE3
T3 sequence (P23847 29-535 K422C): as the sequence (P23847 29-535 D478C) above, with K394C, C450D counted along it
Excerpt: as §1, §2, §3, §4, §5

[4] = target: T4, E. coli dipeptide binding protein variant R141C, fluorophore conjugate (Escherichia coli, UniProt P23847, R169C); experiment: Fluorimetric titration of fluorophore conjugates; conditions: peristeric site
T4 construct: initiator methionine (N); Gly-Ser-Gly-(His)n or Gly-Ser-(His)n (n = 5, 6 or 10) (C); made in house; host or cells: E. coli BL21-DE3
T4 sequence (P23847 29-535 R169C): as the sequence (P23847 29-535 D478C) above, with R141C, C450D counted along it
Excerpt: as §1, §2, §3, §4, §5

[5] = target: T5, E. coli dipeptide binding protein variant S111C, fluorophore conjugate (Escherichia coli, UniProt P23847, S139C); experiment: Fluorimetric titration of fluorophore conjugates; conditions: peristeric site
T5 construct: initiator methionine (N); Gly-Ser-Gly-(His)n or Gly-Ser-(His)n (n = 5, 6 or 10) (C); made in house; host or cells: E. coli BL21-DE3
T5 sequence (P23847 29-535 S139C): as the sequence (P23847 29-535 D478C) above, with S111C, C450D counted along it
Excerpt: as §1, §2, §3, §4, §5

[6] = target: T6, E. coli dipeptide binding protein variant T44C, fluorophore conjugate (Escherichia coli, UniProt P23847, T72C); experiment: Fluorimetric titration of fluorophore conjugates; conditions: peristeric site
T6 construct: initiation methionine (N); Gly-Ser-Gly-(His)n or Gly-Ser-(His)n (C); made in house; host or cells: E. coli BL21-DE3
T6 sequence (P23847 29-535 T72C): as the sequence (P23847 29-535 D478C) above, with T44C, C450D counted along it
Excerpt: as §1, §2, §3, §4, §5

[7] = target: T7, E. coli dipeptide binding protein variant W315C, fluorophore conjugate (Escherichia coli, UniProt P23847, W343C); experiment: Fluorimetric titration of fluorophore conjugates; conditions: peristeric site
T7 construct: initiation methionine (N); Gly-Ser-Gly-(His)n or Gly-Ser-(His)n (C); made in house; host or cells: E. coli BL21-DE3
T7 sequence (P23847 29-535 W343C): as the sequence (P23847 29-535 D478C) above, with W315C, C450D counted along it
Excerpt: as §1, §2, §3, §4, §5

T1 sequence (P23847 29-535, stated change not applied): as the sequence (P23847 29-535 D478C) above, with C450D counted along it

CC(C)C[C@H](NC(=O)CN)C(=O)O [Gly-Leu, Gly-Leu dipeptide]
range of Kd [1]: 6 to 93000 nM
Kd ([2]; Acrylodan conjugate): 11000 nM
Kd ([2]; JPW4039 conjugate): 910 nM
Kd ([2]; JPW4042 conjugate): 1500 nM
Kd ([2]; JPW4045 conjugate): 2000 nM
Kd ([3]; Kd, Acrylodan conjugate, peristeric site): 23000 nM
Kd ([3]; Kd, Fluorescein conjugate, peristeric site): 93000 nM
Kd ([3]; Kd, JPW4039 conjugate, peristeric site): 30000 nM
Kd ([3]; Kd, JPW4042 conjugate, peristeric site): 78000 nM
Kd ([3]; Kd, NBD conjugate, peristeric site): 12 nM
Kd ([3]; affinity for Gly-Leu dipeptide (Kd), K394C-NBD conjugate): 6 nM
Kd ([3]; affinity for Gly-Leu dipeptide (Kd), K394C-fluorescein conjugate): 93000 nM
Kd ([4]; Acrylodan conjugate): 2300 nM
Kd ([4]; Fluorescein conjugate): 38000 nM
Kd ([5]; Acrylodan conjugate): 4800 nM
Kd ([5]; Fluorescein conjugate): 2600 nM
Kd ([5]; JPW4039 conjugate): 34000 nM
Kd ([5]; JPW4042 conjugate): 15800 nM
Kd ([6]; Fluorescein conjugate): 640 nM
Kd ([6]; NBD conjugate): 6 nM
Kd ([7]; Acrylodan conjugate): 130 nM
Kd ([7]; JPW4039 conjugate): 1000 nM
Kd ([7]; JPW4045 conjugate): 3200 nM
Kd ([7]; NBD conjugate): 60 nM

— patent US9625458B2, “Biosensor” (priority 2002, dated 2017)
